Test results taken from patent US20250188110A1, “SPECIFIC SMALL MOLECULE INHIBITORS THAT BLOCK KMT9 METHYLTRANSFERASE ACTIVITY AND FUNCTION” (ALBERT-LUDWIGS-UNIVERSITÄT FREIBURG, priority 2021, published 2025).

What was measured:
KMT9 [1] = target: T1, KMT9 (Homo sapiens, UniProt Q9Y5N5); assay: KMT9 methyltransferase inhibition assay, 3H-SAM scintillation (entries 1-154); type: biochemical; settings: entries 1-154: 3H-SAM assay, 25 nM KMT9, 5 μM ETF1
T1 sequence (Q9Y5N5 1-214): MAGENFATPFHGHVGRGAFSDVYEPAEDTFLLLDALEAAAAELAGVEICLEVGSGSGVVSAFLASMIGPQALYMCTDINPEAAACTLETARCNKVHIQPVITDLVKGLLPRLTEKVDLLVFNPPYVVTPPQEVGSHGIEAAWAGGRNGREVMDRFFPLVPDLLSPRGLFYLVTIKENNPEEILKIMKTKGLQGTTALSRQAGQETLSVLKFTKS
T1 sequence (Q9UI30 1-120 isoform Q9UI30-2 partner): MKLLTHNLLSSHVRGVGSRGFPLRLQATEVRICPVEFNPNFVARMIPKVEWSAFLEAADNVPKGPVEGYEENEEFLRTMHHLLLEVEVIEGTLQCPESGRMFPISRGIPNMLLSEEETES
Procedure, shortened: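 Final 25 nM KMT9, 5 μM ETF1 (residues 140-275), 0.3 μM 3H-SAM plus 0.7 μM SAM in pH 8.5 BTP buffer, 2 h at 30° C. TCA-quenched, filter-washed, methylation counted by scintillation; % inhibition vs DMSO and no-enzyme controls, IC50 from four-parameter fit.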

KMT9 [2] = target: T1, KMT9; assay: Microscale thermophoresis (MST) KMT9 binding; settings: microscale thermophoresis, His-tag labelled KMT9 (20 nM); read-out: MST
Procedure, shortened: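 His-tagged KMT9 (20 nM), RED-Tris-NTA labelled, titrated with varying compound concentrations in 25 mM HEPES pH 7.5, 100 mM NaCl, 1 mM DTT, 0.05% Tween. MST at 40% MST and 100% LED power, Nano-RED excitation; Kd binned A ≤10 nM, B 10–100, C 100–1000, D >1000 nM.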

KMT9 [3] = target: T1, KMT9; assay: KMT9 thermal shift assay (SyproOrange); type: binding; settings: ΔTm; 500 µM compound, 2 μM KMT9, 5X SO; read-out: Thermal shift
Procedure, shortened: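 Recombinant KMT9 was incubated with compound and SyproOrange at 25° C in 50 mM BTP pH 8.5, 1 mM MgCl2, 1 mM DTT. It was then heated from 20° C to 95° C at 1° C per 15 s with fluorescence read each step. Tm came from a Boltzmann sigmoidal fit; ΔTm relative to DMSO control, binned in 5 K ranges.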

Row | IC50 (KMT9 [1]) [nM] | Kd (KMT9 [2]) [nM] | ΔTm at 500 µM (KMT9 [3]) [°C] | Compound
1 | > 10000 | 100 to 1000 | 10 to 15 | Nc1ncnc2c1c(Br)cn2[C@@H]1C[C@H](C(=O)NC[C@@H]2CCCNC2)[C@@H](O)[C@H]1O [454 (326), (1S,2R,3S,4R)-4-(4-Amino-5-bromo-7H-pyrrolo[2,3-d]pyrimidin-7-yl)-2,3-dihydroxy-N-(((R)-piperidin-3-yl)methyl) cyclopentane-1-carboxamide]
2 | 1000 to 10000 | 100 to 1000 | 10 to 15 | CC(=O)N1CCC(c2cn([C@@H]3C[C@H](CNCCCNCCc4ccccc4)[C@@H](O)[C@H]3O)c3ncnc(N)c23)CC1 [481 (355), 1-(4-(4-Amino-7-((1R,2S,3R,4R)-2,3-dihydroxy-4-(((3-(phenethylamino)propyl)amino)methyl)cyclopentyl)-7H-pyrrolo[2,3-d]pyrimidin-5-yl)piperidin-1-yl)ethan-1-one]
3 | < 100 | ≤ 10 | 15 to 20 | Nc1ncnc2c1c(-c1ccn(S(=O)(=O)c3ccccc3)n1)cn2[C@@H]1C[C@H](CNCCCNCCc2ccccc2)[C@@H](O)[C@H]1O [Compound 604, (1R,2S,3R,5R)-3-(4-Amino-5-(1-(phenylsulfonyl)-1H-pyrazol-3-yl)-7H-pyrrolo[2,3-d]pyrimidin-7-yl)-5-(((3-(phenethylamino)propyl)amino)methyl)cyclopentane-1,2-diol]
4 | 1000 to 10000 | 100 to 1000 | 15 to 20 | Nc1ncnc2c1c(C1CC1)cn2[C@@H]1C[C@H](CNCCCNCCc2ccccc2)[C@@H](O)[C@H]1O [468 (342), (1R,2S,3R,5R)-3-(4-Amino-5-cyclopropyl-7H-pyrrolo[2,3-d]pyrimidin-7-yl)-5-(((3-(phenethylamino)propyl)amino)methyl) cyclopentane-1,2-diol]
5 | 100 to 1000 | ≤ 10 | 15 to 20 | Nc1ncnc2c1ccn2[C@@H]1C[C@H](CN(CCCNCCc2ccc(F)cc2)c2c[nH]nc2Br)[C@@H](O)[C@H]1O [Compound 603, (1R,2S,3R,5R)-3-{4-Aminopyrrolo[2,3-d]pyrimidin-7-yl}-5-{[(3-bromo-2H-pyrazol-4-yl)(3-{[2-(4-fluorophenyl)ethyl]amino}propyl)amino]methyl}cyclopentane-1,2-diol]

Continued, compound first:

Row | Compound | IC50 (KMT9 [1]) [nM] | Kd (KMT9 [2]) [nM] | ΔTm at 500 µM (KMT9 [3]) [°C]
6 | CNc1ncnc2c1ccn2[C@@H]1C[C@H](CN2CC(CNCCc3ccc4ccccc4c3)C2)[C@@H](O)[C@H]1O [360 (264), (1R,2S,3R,5R)-3-(4-(methylamino)-7H-pyrrolo[2,3-d]pyrimidin-7-yl)-5-((3-(((2-(naphthalen-2-yl)ethyl)amino)methyl)azetidin-1-yl)methyl) cyclopentane-1,2-diol] | > 10000 | > 1000 | ≤ 10
7 | Nc1ncnc2c1ncn2[C@@H]1O[C@H](CNCCCNCc2ccc3ccccc3c2)[C@@H](O)[C@H]1O [323 (226), (2R,3R,45,5R)-2-(6-amino-9H-purin-9-yl)-5-(((3-((naphthalen-2-ylmethyl)amino)propyl)amino)methyl)tetrahydrofuran-3,4-diol] | > 10000 | > 1000 | ≤ 10
8 | Nc1ncnc2c1ncn2[C@@H]1O[C@H](C(=O)NCCCNC(=O)Cc2ccccc2)[C@@H](O)[C@H]1O [303 (200)] | > 10000 | > 1000 | ≤ 10
9 | CNc1ncnc2c1ccn2[C@@H]1C[C@H](CNCCCNCCc2ccc3ccccc3c2)[C@@H](O)[C@H]1O [368 (272), (1R,2S,3R,5R)-3-(4-(methylamino)-7H-pyrrolo[2,3-a]pyrimidin-7-yl)-5-(((3-((2-(naphthalen-2-yl)ethyl)amino)propyl)amino)methyl) cyclopentane-1,2-diol] | > 10000 | > 1000 | 10 to 15
10 | CCN(CCCNCCc1cccc(Oc2ccccc2)c1)C[C@H]1C[C@@H](n2ccc3c(NC)ncnc32)[C@H](O)[C@@H]1O [364 (268), (1S,2R,3R,5R)-3-((ethyl(3-((3-phenoxyphenethyl)amino)propyl)amino)methyl)-5-(4-(methylamino)-7H-pyrrolo[2,3-d]pyrimidin-7-yl) cyclopentane-1,2-diol] | 1000 to 10000 | 100 to 1000 | 10 to 15
